Assay results reported in US11401278B2, “Macrocyclic indole derivatives” (The Broad Institute, Inc., priority 2017, dated 2022).
Structures can show the parent of a compound that is named as a salt.

Target: BCL-XL (Homo sapiens (Human), UniProt Q07817)
Experiment: Protein-protein interaction assay BCL-XL/Bad BH3 peptide (BCL-XL assay, TR-FRET)
Assay type: binding
Details: His-BCL-XL / Bad BH3 peptide, median
Experimental: Assay 2 Protein-Protein Interaction Assay: BCL-XL/Bad BH3 Peptide (BCL-XL Assay)
The dose-dependent inhibition by the compounds described in this invention of the interaction between BCL-XL and the BH3 domain of Bad (both human) was determined using a steady state binding competition assay with time-resolved fluorescence energy transfer (TR-FRET) readout. For that purpose BCL-XL (amino acids 1-212, C-terminal fused to a hexahistidine (6×His) tag (SEQ ID 3) and a synthetic Bad BH3-derived peptide of sequence Biotin-PEG2-PEG2-NLWAAQRYGRELRR-Nle-SDEFVDSFKK-amide (SEQ ID 4) served as protein receptor and tracer ligand respectively. The recombinant BCL-XL protein (expressed in E. coli) was purchased from BPS Bioscience (San Diego, Calif., USA). The Bad BH3-derived peptide can be obtained from e.g. Biosyntan (Berlin, Germany).
In the assay 11 different concentrations of each compound (0.1 nM, 0.33 nM, 1.1 nM, 3.8 nM, 13 nM, 44 nM, 0.15 μM, 0.51 μM, 1.7 μM, 5.9 μM and 20 μM) were typically measured as duplicates in the same microtiter plate. For that, 100-fold concentrated DMSO solutions were prepared by serial dilutions (1:3.4) of a 2 mM stock solution in a clear, 384-well microtiter plate (Greiner Bio-One, Frickenhausen, Germany). From there, 50 nl were transferred in a dark test plate (Greiner Bio-One, Frickenhausen, Germany). The assay was initiated by addition of 2 μl of a 2.5-fold concentrated His-BCL-XL solution (usually for a 1 nM end concentration in 5 μl reaction volume) in aqueous assay buffer [50 mM Tris/HCl pH 7, 100 mM sodium chloride (NaCl), 50 mM potassium fluoride (KF), 0.005% Tween-20, 2 mM DTT, 0.1% bovine gamma globulin (BGG)] to the compounds in the assay plate. This was followed by a 10-minute incubation step at 22° C. for pre-equilibration of the putative complex between His-BCL-XL and the compounds. After that, 3 μl of a 1.67-fold concentrated solution (in assay buffer) consisting of Bad BH3-derived peptide (1 nM end concentration) and TR-FRET detection reagents [1.67 nM anti-His-Eu cryptate and 1.67 nM streptavidin-XL665 (both from Cisbio Bioassays, Codolet, France)], were added.
The mixture was incubated in the dark for one hour at 22° C. and then overnight at 4° C. The formation of BCL-XL/Bad complexes was determined by measuring the resonance energy transfer of the anti-His- Eu-cryptate antibody to the streptavidin-XL665 present in the reaction. For that purpose, the fluorescence emission at 620 nm and 665 nm after excitation at 330-350 nm was measured in a TR-FRET measuring instrument, for instance a Rubystar or a Pherastar (both from BMG Lab Technologies, Offenburg, Germany) or a Viewlux (Perkin-Elmer). The ratio of the emission at 665 nm and at 622 nm was used as indicator of the amount of BCL-XL/Bad complexes present.
The resulting data (ratio) were normalized, taking 0% inhibition as the mean value of control measurements (usually 32 data points) where all reagents were included. In this case 50 nl DMSO were used instead of compounds. A 100% inhibition corresponded to the mean value of control measurements (usually 32 data points) where all reagents except BCL-XL were included. IC50 values were determined by regression analysis based on a 4 parameter equation (minimum, maximum, IC50, Hill; Y=Max+(Min−Max)/(1+(X/IC50)^HiII) using the Screener Software (Genedata).

Sequence of BCL-XL (Q07817 other isoform, or with tags, fused parts or gaps): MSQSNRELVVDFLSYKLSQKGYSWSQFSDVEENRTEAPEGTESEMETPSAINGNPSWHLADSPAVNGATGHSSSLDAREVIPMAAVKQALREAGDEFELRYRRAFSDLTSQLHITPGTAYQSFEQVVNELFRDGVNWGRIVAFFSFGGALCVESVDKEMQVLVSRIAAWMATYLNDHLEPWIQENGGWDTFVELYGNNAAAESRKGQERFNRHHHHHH

| SMILES | IC50 [µM] |
| --- | --- |
| CCc1c2c(nn1C)CN(C)S(=O)(=O)CCCn1c(C(=O)O)c(CCCOc3cccc4cc(F)ccc34)c3ccc(Cl)c-2c31 (single isomer, unassigned; enantiomer 1) [Example 36, (+)-4-chloro-3-ethyl-7-{3-[(6-fluoronaphthalen-1-yl)oxy]propyl}-2,14-dimethyl-13,13-dioxo-10,11,12,13,14,15-hexahydro-2H-13lambda^6-pyrazolo[3′,4′:4,5][1,2,8]thiadiazacycloundecino-[6,7,8-hi]indole-8-carboxylic acid (Enantiomer 1)] | > 20 |
| Cc1c2c(nn1C)CN(C)S(=O)(=O)CCCn1c(C(=O)O)c(CCCOc3cccc4cc(F)ccc34)c3ccc(F)c-2c31 (single isomer, unassigned; enantiomer 1) [Example 38, (−)-4-fluoro-7-{3-[(6-fluoronaphthalen-1-yl)oxy]propyl}-2,3,14-trimethyl-13,13-dioxo-10,11,12,13,14,15-hexahydro-2H-13lambda^6-pyrazolo[3′,4′:4,5][1,2,8]thiadiazacycloundecino-[6,7,8-hi]indole-8-carboxylic acid (Enantiomer 1)] | > 20 |
| Cc1c2c(nn1C)CN(C1CC1)S(=O)(=O)CCCn1c(C(=O)O)c(CCCOc3cccc4cc(F)ccc34)c3ccc(Cl)c-2c31 (single isomer, unassigned; enantiomer 1) [Example 42, (−)-4-chloro-14-cyclopropyl-7-{3-[(6-fluoro-1-naphthyl)oxy]propyl}-2,3-dimethyl-11,12,14,15-tetrahydro-2H,10H-pyrazolo[3′,4′:4,5][1,2,8]thiadiazacycloundecino[6,7,8-hi]indole-8-carboxylic acid 13,13-dioxide N-diethylamine salt (Enantiomer 1)] | 18 |
| Cc1c2c(nn1C)C(CCN1CCOCC1)N(C)S(=O)(=O)CCCn1c(C(=O)O)c(CCCOc3cccc4ccccc34)c3cccc-2c31 (single isomer, unassigned; enantiomer 1) [Example 45, 2,3,14-trimethyl-15-[2-(morpholin-4-yl)ethyl]-7-{3-[(naphthalen-1-yl)oxy]propyl}-13,13-dioxo-10,11,12,13,14,15-hexahydro-2H-13lambda^6-pyrazolo[3′,4′:4,5][1,2,8]thiadiazacycloundecino[6,7,8-hi]indole-8-carboxylic acid N-ethylethanamine Salt (Enantiomer 1)] | 18 |
| Cc1c2c(nn1C)CNS(=O)(=O)CCCn1c(C(=O)O)c(CCCOc3cccc4cc(F)ccc34)c3ccc(Cl)c-2c31 (single isomer, unassigned; enantiomer 1) [Example 51, 4-chloro-7-{3-[(6-fluoronaphthalen-1-yl)oxy]propyl}-2,3-dimethyl-13,13-dioxo-10,11,12,13,14,15-hexahydro-2H-13lambda^6-pyrazolo[3′,4′:4,5][1,2,8]thiadiazacycloundecino[6,7,8-hi]indole-8-carboxylic acid (Enantiomer 1)] | > 20 |
| CCc1c2c(nn1C)C(CCC1CCOCC1)N(C)S(=O)(=O)CCCn1c(C(=O)O)c(CCCOc3cccc4cc(F)ccc34)c3ccc(Cl)c-2c31 (single isomer, unassigned; enantiomer 1) [Example 61, (+)-4-chloro-3-ethyl-7-{3-[(6-fluoronaphthalen-1-yl)oxy]propyl}-2,14-dimethyl-15-[2-(oxan-4-yl)ethyl]-13,13-dioxo-10,11,12,13,14,15-hexahydro-2H-13lambda^6-pyrazolo[3′,4′:4,5][1,2,8]thiadiazacycloundecino[6,7,8-hi]indole-8-carboxylic acid (Enantiomer 1)] | > 20 |
| Cc1c2c(nn1C)C(CCN1CCOCC1)N(C)S(=O)(=O)CCCn1c(C(=O)O)c(CCCOc3cccc4cc(F)ccc34)c3ccc(Cl)c-2c31 (single isomer, unassigned; enantiomer 1) [Example 66, 4-chloro-7-{3-[(6-fluoronaphthalen-1-yl)oxy]propyl}-2,3,14-trimethyl-15-[2-(morpholin-4-yl)ethyl]-13,13-dioxo-10,11,12,13,14,15-hexahydro-2H-13lambda^6-pyrazolo[3′,4′:4,5][1,2,8]thiadiazacycloundecino[6,7,8-hi]indole-8-carboxylic acid (Enantiomer 1)] | > 20 |
| Cc1c2c(nn1C)CN(CCN1CCOCC1)S(=O)(=O)CCCn1c(C(=O)O)c(CCCOc3cccc4ccccc34)c3cccc-2c31 (single isomer, unassigned; enantiomer 2) [Example 3, 2,3-Dimethyl-14-[2-(morpholin-4-yl)ethyl]-7-{3-[(naphthalen-1-yl)oxy]propyl}-13,13-dioxo-10,11,12,13,14,15-hexahydro-2H-13λ^6-pyrazolo[3′,4′:4,5][1,2,8]thiadiazacycloundecino-[6,7,8-hi]indole-8-carboxylic acid-N-ethylethanamine salt (Enantiomer 2)] | > 20 |
| Cc1c2c(nn1C)CN(C)S(=O)(=O)CCCn1c(C(=O)O)c(CCCOc3cccc4ccccc34)c3ccc(Cl)c-2c31 (single isomer, unassigned; enantiomer 2) [Example 6, 4-Chloro-2,3,14-trimethyl-7-{3-[(naphthalen-1-yl)oxy]propyl}-13,13-dioxo-10,11,12,13,14,15-hexahydro-2H-13λ^6-pyrazolo[3′,4′:4,5][1,2,8]thiadiazacycloundecino[6,7,8-hi]indole-8-carboxylic acid-N-ethylethanamine salt (Enantiomer 2)] | 18 |
| CCc1c2c(nn1C)CN(C)S(=O)(=O)CCCn1c(C(=O)O)c(CCCOc3cccc4cc(F)ccc34)c3ccc(F)c-2c31 (single isomer, unassigned; enantiomer 2) [Example 9, (−)-3-Ethyl-4-fluoro-7-{3-[(6-fluoronaphthalen-1-yl)oxy]propyl}-2,14-dimethyl-13,13-dioxo-10,11,12,13,14,15-hexahydro-2H-13λ^6-pyrazolo[3′,4′:4,5][1,2,8]thiadiazacycloundecino-[6,7,8-hi]indole-8-carboxylic acid (Enantiomer 2)] | > 20 |
| CCc1c2c(nn1C)CN(C)S(=O)(=O)CCCn1c(C(=O)O)c(CCCOc3cccc4cc(F)ccc34)c3ccc(Cl)c-2c31 (single isomer, unassigned; enantiomer 2) [Example 37, (−)-4-chloro-3-ethyl-7-{3-[(6-fluoronaphthalen-1-yl)oxy]propyl}-2,14-dimethyl-13,13-dioxo-10,11,12,13,14,15-hexahydro-2H-13lambda^6-pyrazolo[3′,4′:4,5][1,2,8]thiadiazacycloundecino-[6,7,8-hi]indole-8-carboxylic acid (Enantiomer 2)] | 18 |
| Cc1c2c(nn1C)CN(C)S(=O)(=O)CCCn1c(C(=O)O)c(CCCOc3cccc4cc(F)ccc34)c3ccc(F)c-2c31 (single isomer, unassigned; enantiomer 2) [Example 39, (+)-4-fluoro-7-{3-[(6-fluoronaphthalen-1-yl)oxy]propyl}-2,3,14-trimethyl-13,13-dioxo-10,11,12,13,14,15-hexahydro-2H-13lambda^6-pyrazolo[3′,4′:4,5][1,2,8]thiadiazacycloundecino-[6,7,8-hi]indole-8-carboxylic acid (Enantiomer 2)] | > 20 |
| Cc1c2c(nn1C)CN(C1CC1)S(=O)(=O)CCCn1c(C(=O)O)c(CCCOc3cccc4cc(F)ccc34)c3ccc(Cl)c-2c31 (single isomer, unassigned; enantiomer 2) [Example 43, (+)-4-chloro-14-cyclopropyl-7-{3-[(6-fluoro-1-naphthyl)oxy]propyl}-2,3-dimethyl-11,12,14,15-tetrahydro-2H,10H-pyrazolo[3′,4′:4,5][1,2,8]thiadiazacycloundecino[6,7,8-hi]indole-8-carboxylic acid 13,13-dioxide N-diethylamine salt (Enantiomer 2)] | > 20 |
